Among the test systems are SK-MEL-28 melanoma; HT29 colon; SF-539 CNS; HCT-15 colon; CAKI-1 renal; HL-60(TB) leukemia; KM12 colon; U251 CNS; HS 578T breast; IGROV1 ovarian.
Holding throughout (experiment): growth of human tumour cells (NCI), 48 h

“And” between values parts separate entries of the source, which are not always exact repeats. Equal values may be shown once.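 Assay format: 96-well plates, 48-hour exposure. Abbreviation: GI50, concentration required for 50% inhibition of growth. Definition used: TGI = concentration required for complete inhibition of growth.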 Some results are limits rather than exact numbers.

7 compounds from PubChem BioAssay (NCI) can be followed below.

Consider `Nc1nc(N)c2nc(CNc3ccc(C(=O)NC(CCC(=O)O)C(=O)O)cc3)cnc2n1` (stereo unspecified), for which the GI50 is 0.941 µM in the assay on SK-MEL-28 melanoma; < 0.01 µM with HT29 colon; 0.0204 µM and < 0.01 µM with SF-539 CNS; 0.0422 µM and < 0.01 µM in the assay with HCT-15 colon; < 0.01 µM in the assay with CAKI-1 renal; < 0.01 µM in the assay on HL-60(TB) leukemia. Besides, the GI50 was < 0.01 µM in the assay on KM12 colon; 0.0468 µM and < 0.0107 µM in the assay on U251 CNS; > 100 µM with HS 578T breast; 0.0651 µM and < 0.01 µM with IGROV1 ovarian. Also, the TGI in the assay with SK-MEL-28 melanoma, with HT29 colon, with SF-539 CNS, in the assay on HCT-15 colon, in the assay on CAKI-1 renal and in the assay with HL-60(TB) leukemia was > 100 µM throughout. Besides, the TGI in the assay on KM12 colon, in the assay on U251 CNS, in the assay with HS 578T breast and in the assay on IGROV1 ovarian was > 100 µM throughout.

`CN1CC[C@H](N(C)C(=O)N2CC(c3cc(F)ccc3F)=C[C@@]2(CO)c2ccccc2)[C@H](F)C1`: the TGI is 28.3 µM in the assay with SK-MEL-28 melanoma; > 100 µM in the assay on HT29 colon; > 100 µM in the assay on HCT-15 colon; > 100 µM with CAKI-1 renal; > 100 µM with HL-60(TB) leukemia; > 100 µM with KM12 colon. For the same compound, the TGI is > 100 µM in the assay with U251 CNS, 7.88 µM in the assay on HS 578T breast and > 100 µM in the assay with IGROV1 ovarian. Besides, the GI50 is 0.0411 µM in the assay on HT29 colon; 0.00498 µM in the assay on SF-539 CNS; 0.00418 µM with HCT-15 colon; 0.0459 µM in the assay on CAKI-1 renal; 0.0337 µM in the assay with HL-60(TB) leukemia; 0.0277 µM in the assay with KM12 colon. The GI50 in the assay with HS 578T breast is 0.0293 µM.

`OC1(c2ccccc2)c2ccccc2N(c2ccccc2)c2ccc(Cl)cc21` (stereo unspecified): the GI50 was 0.193 µM in the assay with SK-MEL-28 melanoma; 0.283 µM in the assay with HT29 colon; 0.236 µM with SF-539 CNS; 0.424 µM in the assay with HCT-15 colon; 0.257 µM in the assay on CAKI-1 renal; 0.251 µM in the assay on HL-60(TB) leukemia. The GI50 was 0.296 µM in the assay on KM12 colon, 0.201 µM in the assay on U251 CNS, 0.332 µM in the assay on HS 578T breast and 0.341 µM in the assay with IGROV1 ovarian. The TGI in the assay with SK-MEL-28 melanoma is 0.434 µM; in the assay on HT29 colon it was 0.918 µM; with SF-539 CNS it was 0.683 µM; in the assay on HCT-15 colon, 1.86 µM; in the assay with CAKI-1 renal, 0.779 µM; in the assay on HL-60(TB) leukemia, 0.739 µM. The TGI was 0.845 µM in the assay with KM12 colon, 0.536 µM in the assay on U251 CNS, 1.81 µM in the assay on HS 578T breast and 1.15 µM in the assay with IGROV1 ovarian.

Turning to `Cc1ccc(CNc2ccc(Cl)cc2NCc2ccc(C)c(O)c2)cc1O`, the GI50 in the assay with SK-MEL-28 melanoma was 7.21 µM; in the assay on HT29 colon it was 9.73 µM; in the assay with SF-539 CNS, 7.31 µM; with HCT-15 colon, 5.66 µM; with CAKI-1 renal, 7.39 µM; in the assay with HL-60(TB) leukemia it was 7.65 µM. The GI50 was 6.52 µM in the assay with KM12 colon, 7.15 µM in the assay on U251 CNS, 7.73 µM in the assay on HS 578T breast and 8.66 µM with IGROV1 ovarian. Besides, the TGI in the assay with SK-MEL-28 melanoma turned out to be 14.2 µM; in the assay with HT29 colon, 17.9 µM; with SF-539 CNS, 14.4 µM; in the assay with HCT-15 colon it was 12.2 µM; in the assay with CAKI-1 renal, 14 µM; in the assay with HL-60(TB) leukemia it was 19.2 µM. Also, the TGI with KM12 colon turned out to be 13.8 µM; in the assay on U251 CNS, 14.2 µM; in the assay on HS 578T breast it was 24.6 µM; with IGROV1 ovarian, 18 µM.

For `CC/C(=C\c1ccc(N(C)C)cc1)c1ccncc1`, the GI50 in the assay on SK-MEL-28 melanoma was > 100 µM; in the assay on HT29 colon, 4.43 µM; in the assay with SF-539 CNS, 7.35 µM; in the assay on HCT-15 colon, 2.82 µM; with CAKI-1 renal, 3.42 µM; with HL-60(TB) leukemia, 4.06 µM. Also, the GI50 was 3.84 µM in the assay on KM12 colon, 4.82 µM with U251 CNS, 4.13 µM with HS 578T breast and 5.47 µM in the assay with IGROV1 ovarian. The TGI with SK-MEL-28 melanoma is > 100 µM; with HT29 colon it was > 100 µM; in the assay on SF-539 CNS, 74.6 µM; with HCT-15 colon it was > 100 µM; in the assay on CAKI-1 renal, > 100 µM; in the assay on HL-60(TB) leukemia it was 29.3 µM. Besides, the TGI is > 100 µM in the assay with KM12 colon, 48.7 µM with U251 CNS, 67.2 µM with HS 578T breast and > 100 µM in the assay on IGROV1 ovarian.

As to `O=C(c1ccco1)c1c(C(F)(F)F)n([O-])c2cc(Cl)c(Cl)cc2[n+]1=O`, the GI50 with SK-MEL-28 melanoma is 2.97 µM; in the assay with HT29 colon, 1.22 µM; with SF-539 CNS, 0.768 µM; in the assay with HCT-15 colon it was 0.233 µM; in the assay on CAKI-1 renal, 0.434 µM; in the assay with HL-60(TB) leukemia, 0.0812 µM. Also, the GI50 in the assay on KM12 colon was 0.186 µM; in the assay on U251 CNS, 0.705 µM; in the assay on HS 578T breast, 0.706 µM; in the assay on IGROV1 ovarian, 0.113 µM. Further, the TGI stood at 6.45 µM in the assay on SK-MEL-28 melanoma; 17.3 µM in the assay with HT29 colon; 1.53 µM with SF-539 CNS; 0.654 µM with HCT-15 colon; 1.24 µM in the assay with CAKI-1 renal; 0.18 µM with HL-60(TB) leukemia. The TGI is 0.75 µM with KM12 colon, 1.43 µM in the assay with U251 CNS, 1.98 µM with HS 578T breast and 2.53 µM in the assay with IGROV1 ovarian.

`CC1SC(c2ccc(OCc3ccccc3)cc2)N(NC(=O)C(O)(c2ccccc2)c2ccccc2)C1=O` (stereo unspecified): the GI50 is 4.44 µM with SK-MEL-28 melanoma; 3.05 µM in the assay on HT29 colon; 14 µM in the assay on SF-539 CNS; 2.74 µM with HCT-15 colon; 2.49 µM in the assay on CAKI-1 renal; 1.85 µM in the assay with HL-60(TB) leukemia. In addition, the GI50 in the assay with KM12 colon is 2.29 µM; with U251 CNS, 4.06 µM; with HS 578T breast, 1.94 µM; with IGROV1 ovarian, 2.4 µM. In addition, the TGI with SK-MEL-28 melanoma stood at 16.3 µM; in the assay on HT29 colon, 7.68 µM; in the assay on SF-539 CNS it was 42.6 µM; in the assay with HCT-15 colon it was 12.7 µM; with CAKI-1 renal, 8.6 µM; in the assay on HL-60(TB) leukemia it was 5.02 µM. The TGI with KM12 colon is 6.32 µM; in the assay on U251 CNS, 15.3 µM; in the assay with HS 578T breast, 7.15 µM; in the assay on IGROV1 ovarian, 11.5 µM.
